The text below walks through data of US5439930A, “Biologically active n-acylprolydipeptides having antiamnestic, antihypoxic and anorexigenic effects” (Russian-American Institute for New Drug Development, priority 1992, dated 1995).

SMILES strings stand for the structures. Where a SMILES comes first, the peptide text is derived from it. The star is where a group is joined. PhAc = O=C(Cc1ccccc1)*

The assay concerns lobectomized rats. Nature of the assay: Active avoidance after frontal lobectomy. Format: in vivo. As to conditions: 0.1 mg/kg daily. The procedure:
The impairment of learning and memory was achieved also by frontal lobectomy, which was performed after passive avoidance or active avoidance learning. Compound I (0.1 mg/kg) was administered beginning from the first post-operational day and lasting for 9 days. The testing was performed at 4th and 9th days. […] The frontal lobectomy has as a consequence the decrease of the latency of the entering of the dark compartment; Compound I restored the passive avoidance reaction (Table 8).
Compound I increased the percentage of the animals performing the active avoidance reaction and the coefficient of the preserving (Table 8).

On to `CCOC(=O)CNC(=O)[C@@H]1CCCN1C(=O)Cc1ccccc1` [Compound I, N-phenacetyl-L-prolylglycine ethyl ester] (PhAc-Pro-Gly-OEt), for which, for the setting “4th day”, the “%% of avoiding rats” value was 42.8% and the “Active avoidance test - coeff. of preserving” value is 28.1%. Moreover, for the setting “9th day”, the “%% of avoiding rats” value is recorded as 57.1% and the “Active avoidance test - coeff. of preserving” value is listed as 38.1%.
